The numbers were not newly measured in patent US7964202B2, “Method for treatment of common acne” (Galderma Research & Development, S.N.C., priority 2001, dated 2011), which cites them from elsewhere.

Read-outs that look alike come from different tables or passages of the source.

For series [1] the following is noted: for degradation time: 40° C.
For series [2] the following is noted: in presence of benzoyl peroxide formulation.

As to `O=C(OOC(=O)c1ccccc1)c1ccccc1` [Benzoyl peroxide], the Benzoyl peroxide solubility (solvent PEG 400) was 39.6 mg/g; the Benzoyl peroxide solubility (solvent ethanol) is 17.9 mg/g; the Benzoyl peroxide solubility (solvent glycerol) is recorded as 0.15 mg/g; the Benzoyl peroxide solubility (solvent propylene glycol) is given as 2.95 mg/g; the Benzoyl peroxide solubility (solvent propylene glycol/water (75:25)) is given as 0.36 mg/g; the Benzoyl peroxide solubility (solvent water) is on record as 0.000155 mg/g. The results for the degradation time in series [1] (in solution in PEG 400 (0.5 mg/g)), in series [1] (in solution in ethanol) and in series [1] (in solution in propylene glycol) were 1.4 days, 29 days and 53 days, respectively. Also, in series [1] (in water and propylene glycol, storage for 90 days), the “degradation in suspension (dispersed form)” value is on record as “not degraded”.

As to `COc1ccc(-c2ccc3cc(C(=O)O)ccc3c2)cc1C12CC3CC(CC(C3)C1)C2` [adapalene], the retinoid degraded entry in series [2] (24 hours) is given as “no degradation”.

As to `CC1=C(/C=C/C(C)=C/C=C/C(C)=C/C(=O)O)C(C)(C)CCC1` [tretinoin], the retinoid degraded in series [2] (2 hours) is given as 50%; in series [2] (24 hours), 95%.
